The target of one assay is hsFATP4 (Homo sapiens, UniProt Q6P1M0). Briefly: BODIPY-FA. The class given is cell-based. The conditions noted are these: hsFATP4 cells.
In the next assay the target is T1, hsFATP5 (Homo sapiens, UniProt Q9Y2P5).
T1 sequence (Q9Y2P5 1-690): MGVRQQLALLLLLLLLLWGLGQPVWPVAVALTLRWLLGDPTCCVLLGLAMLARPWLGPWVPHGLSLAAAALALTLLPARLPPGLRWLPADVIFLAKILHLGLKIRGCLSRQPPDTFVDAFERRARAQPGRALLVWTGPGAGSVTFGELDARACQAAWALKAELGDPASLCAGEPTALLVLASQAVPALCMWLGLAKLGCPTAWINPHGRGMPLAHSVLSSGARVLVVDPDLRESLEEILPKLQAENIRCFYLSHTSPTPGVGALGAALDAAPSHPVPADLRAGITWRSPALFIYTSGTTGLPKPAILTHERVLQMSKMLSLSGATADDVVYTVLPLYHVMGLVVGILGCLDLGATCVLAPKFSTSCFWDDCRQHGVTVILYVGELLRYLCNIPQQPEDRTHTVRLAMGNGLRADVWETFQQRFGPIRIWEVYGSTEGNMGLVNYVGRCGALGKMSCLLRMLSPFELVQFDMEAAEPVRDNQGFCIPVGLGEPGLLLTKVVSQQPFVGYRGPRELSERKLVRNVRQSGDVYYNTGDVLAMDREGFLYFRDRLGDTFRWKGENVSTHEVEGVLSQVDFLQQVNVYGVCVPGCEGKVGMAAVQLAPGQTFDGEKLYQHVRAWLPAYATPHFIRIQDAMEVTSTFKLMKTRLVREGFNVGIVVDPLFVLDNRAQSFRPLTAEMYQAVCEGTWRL
In words: BODIPY-FA. It counts as cell-based. The conditions noted are these: hsFATP5 cells, data not shown.

Assay [1] has as its system undifferentiated 3T3-L1 preadipocytes. Briefly: BODIPY-FA uptake in undifferentiated 3T3-L1 preadipocytes/fibroblasts, FLIPR. The class given is cell-based, murine.
For the next assay, the system named is 3T3-L1 adipocytes. Briefly: LCFA. The class given is cell-based, murine. The conditions noted are these: insulin 0.2 – 1.7 uM.

Entries after “also recorded” stand apart in the source; their conditions may differ.

hsFATP4, sequence (Q6P1M0 whole entry): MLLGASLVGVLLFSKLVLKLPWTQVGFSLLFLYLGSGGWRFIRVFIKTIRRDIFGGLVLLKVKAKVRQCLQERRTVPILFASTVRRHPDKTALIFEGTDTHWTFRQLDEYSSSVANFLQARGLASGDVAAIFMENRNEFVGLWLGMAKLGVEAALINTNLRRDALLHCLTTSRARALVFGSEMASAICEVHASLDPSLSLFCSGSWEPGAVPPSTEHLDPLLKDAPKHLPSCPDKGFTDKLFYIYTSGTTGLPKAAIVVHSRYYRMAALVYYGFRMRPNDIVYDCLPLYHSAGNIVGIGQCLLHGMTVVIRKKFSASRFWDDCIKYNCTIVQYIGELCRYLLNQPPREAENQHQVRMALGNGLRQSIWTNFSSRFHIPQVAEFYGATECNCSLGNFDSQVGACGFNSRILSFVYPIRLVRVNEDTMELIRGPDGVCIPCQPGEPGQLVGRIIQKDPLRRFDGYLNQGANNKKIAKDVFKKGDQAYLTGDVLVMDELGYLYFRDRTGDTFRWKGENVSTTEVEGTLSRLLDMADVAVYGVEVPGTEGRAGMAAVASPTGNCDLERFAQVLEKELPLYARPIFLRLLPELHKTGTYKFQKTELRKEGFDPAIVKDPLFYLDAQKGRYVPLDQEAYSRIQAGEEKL

On to `CCCCCCCCCCCCCCCC(=O)O` [palmitic acid], for which the “inhibition of fatty acid uptake by FATP4 (in words)” value at hsFATP4 (FLIPR concentration-response) is recorded as “did not inhibit”. Further, the “inhibition of fatty acid uptake by FATP5 (in words)” value at hsFATP5 is “did not inhibit”.

As to `C[C@H](CCC(=O)O)[C@H]1CC[C@H]2[C@@H]3[C@@H](O)C[C@@H]4C[C@H](O)CC[C@]4(C)[C@H]3CC[C@]12C` [ursodiol, ursodeoxycholic acid], on hsFATP4 (FLIPR), the “increase of fatty acid uptake signal by hsFATP4 at high concentration (in words)” value is listed as “apparent signal increase at 100 uM”.

“insulin: adipogenic hormone insulin, enhances LCFA uptake in adipocytes”: in assay [1], the “effect on uptake in undifferentiated 3T3-L1 preadipocytes/fibroblasts” value is “much weaker effects; also recorded: minimal effect”. Also, the “maximal insulin-induced uptake over the baseline of adipocytes” value with 3T3-L1 adipocytes is listed as “about two- to three-fold”.

(Values after PMC2887688 (Journal of biomolecular screening, 2010).)
